Measured values taken from patent publication US20060258601A1, “Formulation for inwardly transferring nucleic acids into eucaryotic cells” (priority 2002, published 2006).

Key:
Assay type in all cases: cell-based
[1] = test system: human cultivated endothelial cells; assay: Absorption of FITC-marked decoy oligonucleotide, fluorescence microscopy; details: for effect of transport inhibitors on accumulation/absorption of decoy oligonucleotides: human endothelial cells, methotrexate by comparison with folic acid; for concentration of the nucleic acids in the cell on co-incubation with nonsteroidal anti-inflammatory drug: 100 μmol/l co-incubation, 1 hour (FIG. 6)
Experimental: Human endothelial cells were isolated from umbilical veins by treatment with 1.6 U/ml dispase in Hepes-modified tyrode solution for 30 minutes at 37° C. and cultivated on gelatine-coated 6-well tissue-culture dishes (2 mg/ml gelatine in 0.1 M HCl for 30 minutes at room temperature) in 1.5 ml M199 medium (Gibco Life Technologies, Karlsruhe, Germany), containing 20% foetal calf serum, 50 U/ml penicillin, 50 μg/ml streptomycin, 10 U/ml nystatin, 5 mM HEPES and 5 mM TES, 1 μg/ml heparin and 40 μg/ml endothelial growth factor. […] Before the start of the experiment, the endothelial cells cultivated in the 24-well cell-culture plates were washed once with Ringer's solution at 37° C. (composition: 145 mmol/l Na^+, 5 mmol/l K^+, 156 mmol/l Cl^−, 2 mmol/l Ca^2+, 1 mmol/l Mg^2+, 10 mmol/l Hepes, 10 mmol/l D-glucose, pH 7.35). […] After an incubation period of up to 180 min at 37° C. and in ambient air, the cells were washed three times with 1 ml warm, non-modified Ringer's solution. The fluorescence intensities were recorded with the MicroMax CCD-camera (Princeton Instruments Inc., Trenton, N.J., USA), which was coupled to an Axiovert S100 TV microscope (Zeiss, Göttingen, Germany), with an excitation wavelength of 494 nm, an emission wavelength of 518 nm and 200× magnification. The fluorescence images (one image was taken for each portion of the experimental mixture) and the subsequent quantification was implemented using the MetaMorph V3.0 Software (Universal Imaging West Chester, Pa., USA). For the quantification, all fluorescence images for an experimental mixture were initially calibrated to an identical level of brightness and contrast. Following this, the software was used to determine an overall brightness integrated across the individual pixels for each image as a measure for the fluorescence intensity, thereby representing the intracellular concentration of the decoy oligonucleotide.

[2] = test system: caveolin-1; assay: Western-blot analysis of caveolin-1 protein expression after antisense oligonucleotide treatment; details: human cultivated endothelial cells; antisense 0.5 μmol/l with lipofectin; n=3
Experimental: (§1) For an antisense mixture, 3% lipofectin (v/v) (Gibco Life Technologies) was added to 1 ml culture medium and incubated for 60 minutes at room temperature (RT). Following this, the corresponding antisense or control oligonucleotide (Eurogentec, Köln, Germany) was added in a final concentration of 0.5 μmol/l and incubated for a further 30 minutes at room temperature. At the start of the experiments, the corresponding quantities of heparin and endothelial growth factor were added, and the conventional cell culture medium of the endothelial cell culture was replaced by the antisense lipofectin medium. After 6 hours, the antisense lipofectin medium was removed and replaced by fresh cell culture medium; the Western-blot analysis and/or the fluorescence-microscopic analysis of the decoy-oligonucleotide absorption was carried out 24 hours after the transfection. […]
(§2) The human umbilical vein endothelial cells were opened by freezing successively five times in liquid nitrogen and thawing at 37° C. […] CD40 protein was detected with a polyclonal anti-human antibody (Research Diagnostics Inc., Flanders, N.J., USA). […]

[3] = test system: reduced folic-acid-carrier; assay: Western-blot analysis of reduced folic-acid-carrier protein expression after antisense oligonucleotide treatment; details: human cultivated endothelial cells; antisense 0.5 μmol/l with lipofectin; n=5
Experimental: as §1, §2

[4] = FITC-marked C/EBP decoy 10 μmol/l

Molecule: CN(Cc1cnc2nc(N)nc(N)c2n1)c1ccc(C(=O)N[C@@H](CCC(=O)O)C(=O)O)cc1 [methotrexate]
- effect of transport inhibitors on accumulation/absorption of decoy oligonucleotides [1]: considerably improved inhibition

Molecule: 5′-A*T*G*TCCCTCCGAGT*C*T*A-3′ [antisense oligonucleotide for caveolin-1]
- protein expression of caveolin-1 [2]: 37±10 % of the control
- effect on absorption of the decoy oligonucleotide ([1]; after inhibition of caveolin-1 expression, FITC-marked C/EBP decoy 10 μmol/l, 1 hour (FIG. 2)): significant restricttion

Molecule: CCCN(CCC)S(=O)(=O)c1ccc(C(=O)O)cc1 [probenicid]
- effect of transport inhibitors on accumulation/absorption of decoy oligonucleotides [1]: probenicid-sensitive

Molecule: CC(C(=O)O)c1ccc(N2Cc3ccccc3C2=O)cc1 (stereo not drawn) [indoprofen]
- concentration of the nucleic acids in the cell on co-incubation with nonsteroidal anti-inflammatory drug [1, 4]: significantly increased

Molecule: CC(C(=O)O)c1ccc(-c2ccccc2)c(F)c1 (stereo not drawn) [flurbiprofen]
- concentration of the nucleic acids in the cell on co-incubation with nonsteroidal anti-inflammatory drug [1, 4]: significantly increased

Molecule: 5′-C*A*A*A*GG*T*A*GC*A*C*A*CG*A*G-3′
- protein expression of the reduced folic-acid-carrier [3]: 33±10 % of the control
- inhibition of the decoy-oligonucleotide absorption ([1]; after antisense reduction of hFRC protein, FITC-marked C/EBP decoy 10 μmol/l, 1 hour (FIG. 4)): 45%

Molecule: O=S(=O)(O)c1cc(N=C=S)ccc1C=Cc1ccc(N=C=S)cc1S(=O)(=O)O [DIDS, 4,4′-diisothiocyano-2,2′-stilben-disulfonic acid]
- effect of transport inhibitors on accumulation/absorption of decoy oligonucleotides [1]: high sensitivity
